ChEMBL document CHEMBL1138371, “Discovery of low nanomolar non-hydroxamate inhibitors of tumor necrosis factor-alpha converting enzyme (TACE)” (Bioorg Med Chem Lett, 2007)

Legend:
[1] = molecular target: Disintegrin and metalloproteinase domain-containing protein 17 (Sus scrofa, UniProt O77636); test: Inhibition of porcine TACE
[2] = molecular target: 72 kDa type IV collagenase (Homo sapiens, UniProt P08253); test: Inhibition of MMP2
[3] = molecular target: Stromelysin-1 (Homo sapiens, UniProt P08254); test: Inhibition of MMP3
Stromelysin-1, sequence (P08254 whole entry): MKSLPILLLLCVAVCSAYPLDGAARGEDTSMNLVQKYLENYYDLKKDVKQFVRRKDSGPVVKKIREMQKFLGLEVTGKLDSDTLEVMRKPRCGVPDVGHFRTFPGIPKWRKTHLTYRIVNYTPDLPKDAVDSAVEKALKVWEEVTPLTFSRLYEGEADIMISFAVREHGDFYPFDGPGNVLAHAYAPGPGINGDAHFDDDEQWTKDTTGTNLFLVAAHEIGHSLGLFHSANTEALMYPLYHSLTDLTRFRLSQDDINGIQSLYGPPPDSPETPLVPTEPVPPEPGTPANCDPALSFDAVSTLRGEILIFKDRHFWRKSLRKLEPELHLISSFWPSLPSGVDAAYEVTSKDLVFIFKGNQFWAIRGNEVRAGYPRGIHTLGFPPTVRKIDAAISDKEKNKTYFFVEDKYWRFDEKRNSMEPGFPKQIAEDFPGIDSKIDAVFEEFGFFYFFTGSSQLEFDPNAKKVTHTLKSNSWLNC

[4] = molecular target: T1, Matrilysin (Homo sapiens, UniProt P09237); test: Inhibition of MMP7
T1 sequence (P09237 whole entry): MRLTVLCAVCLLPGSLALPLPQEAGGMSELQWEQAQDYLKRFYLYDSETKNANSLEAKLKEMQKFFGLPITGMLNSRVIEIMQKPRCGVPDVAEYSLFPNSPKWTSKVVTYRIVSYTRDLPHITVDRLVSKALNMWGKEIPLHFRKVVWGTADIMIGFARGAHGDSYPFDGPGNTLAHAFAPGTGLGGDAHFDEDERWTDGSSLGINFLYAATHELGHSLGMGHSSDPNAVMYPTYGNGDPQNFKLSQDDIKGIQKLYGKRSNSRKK

[5] = molecular target: Macrophage metalloelastase (Homo sapiens, UniProt P39900); test: Inhibition of MMP12
Macrophage metalloelastase, sequence (P39900 whole entry): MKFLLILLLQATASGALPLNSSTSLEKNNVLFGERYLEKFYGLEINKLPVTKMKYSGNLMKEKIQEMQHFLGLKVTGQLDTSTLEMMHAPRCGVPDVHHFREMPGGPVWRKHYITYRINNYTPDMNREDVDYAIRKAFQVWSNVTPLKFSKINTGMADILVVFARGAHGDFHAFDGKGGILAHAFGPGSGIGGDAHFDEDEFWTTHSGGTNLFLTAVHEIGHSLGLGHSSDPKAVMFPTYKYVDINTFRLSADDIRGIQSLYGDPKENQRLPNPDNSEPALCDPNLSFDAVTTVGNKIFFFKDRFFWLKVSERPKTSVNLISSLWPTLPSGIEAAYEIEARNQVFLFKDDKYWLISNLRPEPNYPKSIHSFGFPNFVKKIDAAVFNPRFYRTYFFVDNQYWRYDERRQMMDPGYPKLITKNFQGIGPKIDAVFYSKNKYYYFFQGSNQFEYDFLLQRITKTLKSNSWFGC

[6] = organism: Homo sapiens; test: Inhibition of aggrecanase at 1 uM
[7] = system: Blood; test: Inhibition of LPS-stimulated TNFalpha production in human whole blood; type: functional, tissue-based

Disintegrin and metalloproteinase domain-containing protein 17, sequence (O77636 whole entry, the tested form may be a part): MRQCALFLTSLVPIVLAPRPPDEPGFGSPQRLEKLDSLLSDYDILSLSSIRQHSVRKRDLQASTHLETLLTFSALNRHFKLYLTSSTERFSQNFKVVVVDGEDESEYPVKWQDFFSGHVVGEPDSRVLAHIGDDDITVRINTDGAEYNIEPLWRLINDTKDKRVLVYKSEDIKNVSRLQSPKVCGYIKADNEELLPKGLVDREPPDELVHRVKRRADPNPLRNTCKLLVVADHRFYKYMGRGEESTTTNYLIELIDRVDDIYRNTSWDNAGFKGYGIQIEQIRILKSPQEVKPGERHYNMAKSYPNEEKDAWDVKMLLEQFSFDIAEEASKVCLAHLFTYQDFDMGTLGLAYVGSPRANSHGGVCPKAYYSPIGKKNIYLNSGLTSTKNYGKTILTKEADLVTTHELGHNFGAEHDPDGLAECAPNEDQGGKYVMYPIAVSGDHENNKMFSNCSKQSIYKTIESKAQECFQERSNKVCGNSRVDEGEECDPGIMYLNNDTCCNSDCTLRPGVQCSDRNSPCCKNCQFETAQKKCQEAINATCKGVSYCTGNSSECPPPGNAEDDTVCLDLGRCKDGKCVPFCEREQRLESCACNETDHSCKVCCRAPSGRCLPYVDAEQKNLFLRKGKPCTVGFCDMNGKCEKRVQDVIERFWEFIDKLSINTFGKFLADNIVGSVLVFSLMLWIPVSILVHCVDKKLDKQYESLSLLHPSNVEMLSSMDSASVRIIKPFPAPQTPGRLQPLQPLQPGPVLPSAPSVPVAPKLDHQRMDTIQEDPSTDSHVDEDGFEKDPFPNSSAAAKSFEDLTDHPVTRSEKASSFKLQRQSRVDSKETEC
72 kDa type IV collagenase, sequence (P08253 whole entry): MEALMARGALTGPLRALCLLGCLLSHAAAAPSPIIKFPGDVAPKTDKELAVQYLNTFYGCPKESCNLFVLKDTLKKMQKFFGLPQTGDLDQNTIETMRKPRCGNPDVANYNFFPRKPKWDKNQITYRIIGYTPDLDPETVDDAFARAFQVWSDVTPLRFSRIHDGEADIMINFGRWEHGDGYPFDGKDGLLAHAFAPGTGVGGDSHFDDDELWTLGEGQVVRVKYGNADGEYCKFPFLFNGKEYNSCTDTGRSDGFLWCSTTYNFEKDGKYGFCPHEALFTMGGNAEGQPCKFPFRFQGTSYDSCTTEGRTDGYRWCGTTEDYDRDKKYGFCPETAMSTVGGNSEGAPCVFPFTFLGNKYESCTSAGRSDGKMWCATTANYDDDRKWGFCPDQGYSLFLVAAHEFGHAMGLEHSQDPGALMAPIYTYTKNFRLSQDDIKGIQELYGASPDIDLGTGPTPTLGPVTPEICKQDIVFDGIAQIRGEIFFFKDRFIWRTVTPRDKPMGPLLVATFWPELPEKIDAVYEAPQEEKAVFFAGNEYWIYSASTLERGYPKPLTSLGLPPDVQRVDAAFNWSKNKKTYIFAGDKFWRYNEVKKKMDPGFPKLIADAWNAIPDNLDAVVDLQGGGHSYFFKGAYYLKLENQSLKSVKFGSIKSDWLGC

SMILES	IC50 [1]	Ki [2]	Ki [3]	Ki [4]	Ki [5]	inhibition [6]	IC50 [7]
Cc1cc(COc2ccc(C(=O)NCC3(C4CCN(C(=O)C(C)(C)C)CC4)C(=O)NC(=O)NC3=O)cc2)c2ccccc2n1	0.013 µM	> 3.33 µM	> 4.5 µM	> 6.37 µM	> 6.02 µM	10%	39 µM
Cc1cc(COc2ccc(C(=O)NCC3(C4CCN(C(C)C)CC4)C(=O)NC(=O)NC3=O)cc2)c2ccccc2n1	0.052 µM	> 3.33 µM	> 4.5 µM	> 6.37 µM	> 6.02 µM	21%	> 50 µM
C#CCN1CCN(C2(CNC(=O)c3ccc(OCc4cc(C)nc5ccccc45)cc3)C(=O)NC(=O)NC2=O)CC1	0.062 µM	> 3.33 µM	> 4.5 µM	> 6.37 µM	> 6.02 µM	26%	> 50 µM
Cc1cc(COc2ccc(C3(C)C(=O)NC(=O)NC3=O)cc2)c2ccccc2n1	1.03 µM						
Cc1cc(COc2ccc(C(=O)NCC3(N4CCN(C)CC4)C(=O)NC(=O)NC3=O)cc2)c2ccccc2n1	0.058 µM	> 3.33 µM	> 4.5 µM	> 6.37 µM	> 6.02 µM	21%	> 50 µM
Cc1cc(COc2ccc(CCC3(C)C(=O)NC(=O)NC3=O)cc2)c2ccccc2n1	49 µM						
Cc1cc(COc2ccc(C(=O)NC3CN(C(=O)C(C)(C)C)CC34C(=O)NC(=O)NC4=O)cc2)c2ccccc2n1 (stereo not drawn)	0.111 µM	> 3.33 µM	> 4.5 µM	> 6.37 µM	> 6.02 µM	53%	> 50 µM
Cc1cc(COc2ccc(C(=O)NC(c3ccncc3)C3(C)C(=O)NC(=O)NC3=O)cc2)c2ccccc2n1 (stereo not drawn)	2.36 µM						
Cc1cc(COc2ccc(C(=O)NC3CCCCC34C(=O)NC(=O)NC4=O)cc2)c2ccccc2n1 (stereo not drawn)	0.138 µM	0.11 µM				29%	
Cc1cc(COc2ccc(C(=O)NC3CCCC34C(=O)NC(=O)NC4=O)cc2)c2ccccc2n1 (stereo not drawn)	0.024 µM	> 3.33 µM				0%	> 50 µM
Cc1cc(COc2ccc(CCCC3(C)C(=O)NC(=O)NC3=O)cc2)c2ccccc2n1	> 100 µM						
Cc1cc(COc2ccc(C(=O)NCC3(N4CCN(S(C)(=O)=O)CC4)C(=O)NC(=O)NC3=O)cc2)c2ccccc2n1	0.002 µM	2.17 µM	> 4.5 µM	> 6.37 µM	1.02 µM	11%	> 50 µM
Cc1cc(COc2ccc(C(=O)NCC3(N4CCN(C(=O)c5cccnc5)CC4)C(=O)NC(=O)NC3=O)cc2)c2ccccc2n1	0.01 µM	> 3.33 µM	> 4.5 µM	> 6.37 µM	4.64 µM	36%	43 µM
Cc1cc(COc2ccc(C(=O)NCC3(N4CCN(C(C)C)CC4)C(=O)NC(=O)NC3=O)cc2)c2ccccc2n1	0.007 µM	> 3.33 µM	> 4.5 µM	> 6.37 µM	> 6.02 µM	20%	> 50 µM
Cc1cc(COc2ccc(C(=O)NCC3(C(C)C)C(=O)NC(=O)NC3=O)cc2)c2ccccc2n1	0.019 µM	0.93 µM	> 4.5 µM	> 6.37 µM	> 6.02 µM	11%	> 50 µM
Cc1cc(COc2ccc(C(=O)NC3(C)C(=O)NC(=O)NC3=O)cc2)c2ccccc2n1	> 100 µM						
Cc1cc(COc2ccc(C(=O)NCC3(C4CCN(S(C)(=O)=O)CC4)C(=O)NC(=O)NC3=O)cc2)c2ccccc2n1	0.029 µM	> 3.33 µM	> 4.5 µM	> 6.37 µM	> 6.02 µM	36%	> 50 µM

SMILES	IC50 [1]	Ki [2]	Ki [3]	Ki [4]	Ki [5]	inhibition [6]	IC50 [7]
Cc1cc(COc2ccc(CC3(C)C(=O)NC(=O)NC3=O)cc2)c2ccccc2n1	2.2 µM						
Cc1cc(COc2ccc(C(=O)NCC3(Cc4ccccc4)C(=O)NC(=O)NC3=O)cc2)c2ccccc2n1	0.018 µM	0.37 µM	3.69 µM	> 6.37 µM	0.39 µM	34%	> 50 µM
Cc1cc(COc2ccc(C(=O)NCC3(N4CCN(C(=O)C(C)(C)C)CC4)C(=O)NC(=O)NC3=O)cc2)c2ccccc2n1	0.029 µM	0.02 µM	> 4.5 µM	> 6.37 µM	0.05 µM	7%	38 µM
Cc1cc(COc2ccc(C(=O)CCC3(C)C(=O)NC(=O)NC3=O)cc2)c2ccccc2n1	0.8 µM						
Cc1cc(COc2ccc(NC(=O)CC3(C)C(=O)NC(=O)NC3=O)cc2)c2ccccc2n1	12 µM						
Cc1cc(COc2ccc(OC3(C)C(=O)NC(=O)NC3=O)cc2)c2ccccc2n1	1.3 µM						
Cc1cc(COc2ccc(C(=O)NCC3(N4CCN(Cc5ccccc5)CC4)C(=O)NC(=O)NC3=O)cc2)c2ccccc2n1	0.014 µM	2.7 µM	> 4.5 µM	> 6.37 µM	4.1 µM	22%	> 50 µM
Cc1cc(COc2ccc(C(=O)NCC3(C4CCN(C5CCOCC5)CC4)C(=O)NC(=O)NC3=O)cc2)c2ccccc2n1	0.031 µM	> 3.33 µM	> 4.5 µM	> 6.37 µM	> 6.02 µM	5%	> 50 µM
Cc1cc(COc2ccc(C(=O)NCC3(C4CCNCC4)C(=O)NC(=O)NC3=O)cc2)c2ccccc2n1	0.055 µM	> 3.33 µM	> 4.5 µM	> 6.37 µM	> 6.02 µM	1%	48.7 µM
Cc1cc(COc2ccc(CC(=O)NCC3(C)C(=O)NC(=O)NC3=O)cc2)c2ccccc2n1	> 100 µM						
Cc1cc(COc2ccc(C(=O)NCC3(C4CCN(C)CC4)C(=O)NC(=O)NC3=O)cc2)c2ccccc2n1	0.057 µM	> 3.33 µM	> 4.5 µM	> 6.37 µM	> 6.02 µM	15%	> 50 µM
Cc1cc(COc2ccc(/C=C/CC3(C)C(=O)NC(=O)NC3=O)cc2)c2ccccc2n1	11 µM						
Cc1cc(COc2ccc(C(=O)NCC3(NC(=O)OC(C)(C)C)C(=O)NC(=O)NC3=O)cc2)c2ccccc2n1	0.013 µM	> 3.33 µM	> 4.5 µM	> 6.37 µM	> 6.02 µM	16%	> 50 µM
Cc1cc(COc2ccc(C(=O)NCC3(C4CCN(C(=O)OC(C)(C)C)CC4)C(=O)NC(=O)NC3=O)cc2)c2ccccc2n1	0.047 µM	> 3.33 µM	> 4.5 µM	> 6.37 µM	> 6.02 µM	0%	35 µM
CC(=O)N1CCN(C2(CNC(=O)c3ccc(OCc4cc(C)nc5ccccc45)cc3)C(=O)NC(=O)NC2=O)CC1	0.005 µM	> 3.33 µM	> 4.5 µM	> 6.37 µM	> 6.02 µM	21%	> 50 µM
CCC1(CNC(=O)c2ccc(OCc3cc(C)nc4ccccc34)cc2)C(=O)NC(=O)NC1=O	0.016 µM	0.2 µM	> 4.5 µM	> 6.37 µM	0.21 µM	18%	> 50 µM
